Test: Radical addition of an unstable nitrogen:peroxide radical (immobilized activated amine, butanone peroxide, xylene), measured by HPLC
Conditions: control anti-oxidant in xylene, same conditions
Description: An unstable nitrogen radical was made by adding butanone peroxide to nitrogen immobilized on a solid substrate in the presence of either C70, C60 or, as a control, the anti-oxidant Vitamin E in xylene. Radical addition of the substrate to the immobilized, activated amine is measured by HPLC. […] 74% of the C70 was bound to the nitrogen while only 27% of the C60 was bound.

Substance: Vitamin E
- reaction with the unstable nitrogen radical: did not react at all

Reference: patent publication US8241648B2, “Amphiphilic or lipophilic polar functionalized fullerenes and their uses” (Luna Innovations Incorporated, priority 2007, dated 2012)
